ChEMBL document CHEMBL1201862, “PubChem BioAssay data set” (2004)
One block for each molecule: values may come before it. Calls of active or inactive are those of the source.

Assays:
Format in all cases: functional
[1] = biological target: Tyrosine-protein kinase JAK2 (Homo sapiens, UniProt O60674);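 further: JAK2 tested as one member of a kinase panel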
[2] = biological target: Glycogen synthase kinase-3 beta (Homo sapiens, UniProt P49841);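 further: value comes from a broad kinome profiling panel, with GSK3B as the panel member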
[3] = biological target: Serine/threonine-protein kinase Nek2 (Homo sapiens, UniProt P51955)
[4] = biological target: Dual specificity protein kinase CLK2 (Homo sapiens, UniProt P49760)
[5] = biological target: Cyclin-dependent kinase 8 (Homo sapiens, UniProt P49336); assay: Navigating the Kinome. Panel member name: CDK8
[6] = biological target: Vascular endothelial growth factor receptor 2 (Homo sapiens, UniProt P35968)
[7] = biological target: Tyrosine-protein kinase JAK3 (Homo sapiens, UniProt P52333)
[8] = biological target: Serine/threonine-protein kinase pim-1 (Homo sapiens, UniProt P11309)
[9] = biological target: Fibroblast growth factor receptor 1 (Homo sapiens, UniProt P11362)
[10] = biological target: Leukocyte tyrosine kinase receptor (Homo sapiens, UniProt P29376); assay: Navigating the Kinome. Panel member name: LTK
[11] = biological target: Activin receptor type-1 (Homo sapiens, UniProt Q04771); assay: Navigating the Kinome. Panel member name: ACVR1
[12] = biological target: Cyclin-dependent kinase 5 (Homo sapiens, UniProt Q00535);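 further: CDK5 measured as one member of a kinase profiling panel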
[13] = biological target: Mitogen-activated protein kinase 8 (Homo sapiens, UniProt P45983);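 further: value comes from one member of a kinome-wide kinase profiling panel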
[14] = biological target: Proto-oncogene tyrosine-protein kinase receptor Ret (Homo sapiens, UniProt P07949);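 further: measured within a kinome-wide profiling panel, RET as the panel member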
[15] = biological target: Macrophage-stimulating protein receptor (Homo sapiens, UniProt Q04912); assay: Navigating the Kinome. Panel member name: MST1R
[16] = biological target: Hepatocyte growth factor receptor (Homo sapiens, UniProt P08581);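 further: kinase panel profiling across the kinome, with MET as the panel member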
[17] = biological target: Mitogen-activated protein kinase 9 (Homo sapiens, UniProt P45984);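 further: value from a kinome panel profiling assay, MAPK9 panel entry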
[18] = biological target: Aurora kinase B (Homo sapiens, UniProt Q96GD4)
[19] = biological target: Cyclin-dependent kinase 7 (Homo sapiens, UniProt P50613);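 further: value comes from a kinome-wide kinase profiling panel in which CDK7 is one member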
[20] = biological target: Tyrosine-protein kinase receptor TYRO3 (Homo sapiens, UniProt Q06418);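 further: TYRO3 value obtained as one member of a kinome-wide profiling panel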
[21] = biological target: Tyrosine-protein kinase Fyn (Homo sapiens, UniProt P06241)
[22] = biological target: Platelet-derived growth factor receptor alpha (Homo sapiens, UniProt P16234); assay: Navigating the Kinome. Panel member name: PDGFRA
[23] = biological target: Insulin-like growth factor 1 receptor (Homo sapiens, UniProt P08069); assay: Navigating the Kinome. Panel member name: IGF1R
[24] = biological target: Serine/threonine-protein kinase TAO1 (Homo sapiens, UniProt Q7L7X3)
[25] = biological target: Dual specificity mitogen-activated protein kinase kinase 1 (Homo sapiens, UniProt Q02750); assay: Navigating the Kinome. Panel member name: MAP2K1
[26] = biological target: Ribosomal protein S6 kinase alpha-3 (Homo sapiens, UniProt P51812);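 further: measured within a kinome-wide profiling panel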
[27] = biological target: Serine/threonine-protein kinase D3 (Homo sapiens, UniProt O94806);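 further: determined within a kinase panel screen, with PRKCN as the panel member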
[28] = biological target: Dual specificity protein kinase CLK4 (Homo sapiens, UniProt Q9HAZ1)
[29] = biological target: LIM domain kinase 1 (Homo sapiens, UniProt P53667); assay: Navigating the Kinome. Panel member name: LIMK1
[30] = biological target: T1, Sentrin-specific protease 7 (Homo sapiens, UniProt Q9BQF6);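 further: Luminescence-based dose-response confirmation of ultra-high-throughput screening hits, measuring inhibition of SENP7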
T1 sequence (Q9BQF6 whole entry): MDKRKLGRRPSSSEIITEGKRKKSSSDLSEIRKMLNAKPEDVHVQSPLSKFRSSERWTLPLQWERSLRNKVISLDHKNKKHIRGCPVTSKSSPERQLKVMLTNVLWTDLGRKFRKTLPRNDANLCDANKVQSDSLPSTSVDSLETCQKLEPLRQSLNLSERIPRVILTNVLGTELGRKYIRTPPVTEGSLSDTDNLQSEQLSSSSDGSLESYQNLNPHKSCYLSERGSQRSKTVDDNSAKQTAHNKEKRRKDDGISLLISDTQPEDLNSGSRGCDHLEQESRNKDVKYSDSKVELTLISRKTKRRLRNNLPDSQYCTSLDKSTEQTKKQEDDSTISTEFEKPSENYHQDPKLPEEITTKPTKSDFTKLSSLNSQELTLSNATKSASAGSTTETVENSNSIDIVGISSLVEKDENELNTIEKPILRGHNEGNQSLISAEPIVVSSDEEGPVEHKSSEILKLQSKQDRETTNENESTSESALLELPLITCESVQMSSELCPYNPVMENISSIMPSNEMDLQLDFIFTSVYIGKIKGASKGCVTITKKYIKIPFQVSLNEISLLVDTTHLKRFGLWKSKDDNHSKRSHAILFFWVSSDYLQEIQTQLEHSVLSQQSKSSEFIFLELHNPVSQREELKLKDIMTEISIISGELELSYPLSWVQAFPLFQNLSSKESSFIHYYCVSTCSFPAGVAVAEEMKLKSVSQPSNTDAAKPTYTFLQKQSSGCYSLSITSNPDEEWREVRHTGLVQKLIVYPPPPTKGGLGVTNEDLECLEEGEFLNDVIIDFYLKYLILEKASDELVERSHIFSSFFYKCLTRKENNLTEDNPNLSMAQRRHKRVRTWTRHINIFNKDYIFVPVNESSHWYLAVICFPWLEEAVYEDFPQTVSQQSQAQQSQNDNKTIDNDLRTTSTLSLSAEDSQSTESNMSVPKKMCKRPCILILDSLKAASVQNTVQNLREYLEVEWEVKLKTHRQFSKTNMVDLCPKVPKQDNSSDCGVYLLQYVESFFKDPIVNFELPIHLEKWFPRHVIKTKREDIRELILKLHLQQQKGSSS

Fibroblast growth factor receptor 1, sequence (P11362 whole entry): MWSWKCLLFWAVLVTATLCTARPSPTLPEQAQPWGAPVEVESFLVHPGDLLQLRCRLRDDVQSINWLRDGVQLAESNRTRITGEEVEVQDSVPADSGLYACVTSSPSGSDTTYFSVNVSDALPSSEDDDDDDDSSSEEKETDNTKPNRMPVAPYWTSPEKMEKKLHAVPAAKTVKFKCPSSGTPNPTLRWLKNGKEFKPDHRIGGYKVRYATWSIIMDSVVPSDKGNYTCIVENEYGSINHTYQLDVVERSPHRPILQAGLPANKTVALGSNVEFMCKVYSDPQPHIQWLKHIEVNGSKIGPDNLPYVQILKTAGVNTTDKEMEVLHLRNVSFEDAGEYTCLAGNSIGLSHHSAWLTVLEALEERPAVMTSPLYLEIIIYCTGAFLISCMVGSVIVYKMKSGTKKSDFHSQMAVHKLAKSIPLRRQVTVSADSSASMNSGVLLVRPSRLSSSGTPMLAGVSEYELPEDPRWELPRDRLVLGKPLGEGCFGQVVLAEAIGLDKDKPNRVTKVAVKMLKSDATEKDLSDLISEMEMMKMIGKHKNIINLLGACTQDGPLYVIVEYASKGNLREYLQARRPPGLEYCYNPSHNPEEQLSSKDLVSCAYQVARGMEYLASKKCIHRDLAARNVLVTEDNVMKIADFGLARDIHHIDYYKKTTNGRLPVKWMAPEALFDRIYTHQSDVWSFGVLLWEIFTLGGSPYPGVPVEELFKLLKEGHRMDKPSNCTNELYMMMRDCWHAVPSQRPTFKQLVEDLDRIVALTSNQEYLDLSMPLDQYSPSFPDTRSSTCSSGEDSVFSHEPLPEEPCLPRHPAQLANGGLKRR
Tyrosine-protein kinase JAK2, sequence (O60674 whole entry): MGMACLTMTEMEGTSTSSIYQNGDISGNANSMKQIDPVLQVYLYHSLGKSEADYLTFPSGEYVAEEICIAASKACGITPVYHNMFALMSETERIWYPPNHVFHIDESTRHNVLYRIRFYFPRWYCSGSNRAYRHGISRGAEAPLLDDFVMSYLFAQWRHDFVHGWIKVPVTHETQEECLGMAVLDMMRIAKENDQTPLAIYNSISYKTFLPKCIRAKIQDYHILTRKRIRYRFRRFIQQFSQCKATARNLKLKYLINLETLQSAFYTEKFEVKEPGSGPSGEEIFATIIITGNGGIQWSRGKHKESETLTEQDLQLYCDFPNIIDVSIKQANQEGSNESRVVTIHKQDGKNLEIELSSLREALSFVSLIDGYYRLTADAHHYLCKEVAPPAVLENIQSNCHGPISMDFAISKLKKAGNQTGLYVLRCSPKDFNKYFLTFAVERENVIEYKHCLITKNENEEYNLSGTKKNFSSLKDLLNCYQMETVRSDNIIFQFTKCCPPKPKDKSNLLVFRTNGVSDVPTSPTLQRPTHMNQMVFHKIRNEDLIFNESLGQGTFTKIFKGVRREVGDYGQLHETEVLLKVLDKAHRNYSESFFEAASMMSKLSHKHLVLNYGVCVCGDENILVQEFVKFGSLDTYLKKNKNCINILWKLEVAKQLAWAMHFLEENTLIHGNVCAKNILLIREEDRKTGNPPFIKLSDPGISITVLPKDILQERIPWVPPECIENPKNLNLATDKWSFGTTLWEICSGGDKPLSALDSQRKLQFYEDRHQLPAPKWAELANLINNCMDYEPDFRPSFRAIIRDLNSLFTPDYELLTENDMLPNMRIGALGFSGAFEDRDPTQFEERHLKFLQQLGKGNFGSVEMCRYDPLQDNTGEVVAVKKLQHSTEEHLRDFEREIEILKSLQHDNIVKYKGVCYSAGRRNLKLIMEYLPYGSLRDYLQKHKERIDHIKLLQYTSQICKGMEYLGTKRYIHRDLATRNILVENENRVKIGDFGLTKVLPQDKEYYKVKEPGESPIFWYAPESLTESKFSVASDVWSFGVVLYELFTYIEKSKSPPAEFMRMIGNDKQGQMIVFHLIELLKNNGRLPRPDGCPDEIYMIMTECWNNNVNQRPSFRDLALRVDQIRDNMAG
Mitogen-activated protein kinase 8, sequence (P45983 whole entry): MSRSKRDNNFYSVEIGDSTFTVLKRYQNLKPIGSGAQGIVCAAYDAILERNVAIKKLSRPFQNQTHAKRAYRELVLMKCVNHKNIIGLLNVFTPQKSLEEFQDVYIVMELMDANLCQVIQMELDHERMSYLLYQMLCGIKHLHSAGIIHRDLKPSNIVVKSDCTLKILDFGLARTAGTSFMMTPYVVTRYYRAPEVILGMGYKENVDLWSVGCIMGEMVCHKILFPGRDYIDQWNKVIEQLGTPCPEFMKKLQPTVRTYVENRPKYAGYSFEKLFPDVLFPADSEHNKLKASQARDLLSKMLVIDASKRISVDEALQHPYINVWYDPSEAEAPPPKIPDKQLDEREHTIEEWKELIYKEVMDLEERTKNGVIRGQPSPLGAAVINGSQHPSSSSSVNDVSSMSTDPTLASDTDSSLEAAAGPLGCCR
Vascular endothelial growth factor receptor 2, sequence (P35968 whole entry): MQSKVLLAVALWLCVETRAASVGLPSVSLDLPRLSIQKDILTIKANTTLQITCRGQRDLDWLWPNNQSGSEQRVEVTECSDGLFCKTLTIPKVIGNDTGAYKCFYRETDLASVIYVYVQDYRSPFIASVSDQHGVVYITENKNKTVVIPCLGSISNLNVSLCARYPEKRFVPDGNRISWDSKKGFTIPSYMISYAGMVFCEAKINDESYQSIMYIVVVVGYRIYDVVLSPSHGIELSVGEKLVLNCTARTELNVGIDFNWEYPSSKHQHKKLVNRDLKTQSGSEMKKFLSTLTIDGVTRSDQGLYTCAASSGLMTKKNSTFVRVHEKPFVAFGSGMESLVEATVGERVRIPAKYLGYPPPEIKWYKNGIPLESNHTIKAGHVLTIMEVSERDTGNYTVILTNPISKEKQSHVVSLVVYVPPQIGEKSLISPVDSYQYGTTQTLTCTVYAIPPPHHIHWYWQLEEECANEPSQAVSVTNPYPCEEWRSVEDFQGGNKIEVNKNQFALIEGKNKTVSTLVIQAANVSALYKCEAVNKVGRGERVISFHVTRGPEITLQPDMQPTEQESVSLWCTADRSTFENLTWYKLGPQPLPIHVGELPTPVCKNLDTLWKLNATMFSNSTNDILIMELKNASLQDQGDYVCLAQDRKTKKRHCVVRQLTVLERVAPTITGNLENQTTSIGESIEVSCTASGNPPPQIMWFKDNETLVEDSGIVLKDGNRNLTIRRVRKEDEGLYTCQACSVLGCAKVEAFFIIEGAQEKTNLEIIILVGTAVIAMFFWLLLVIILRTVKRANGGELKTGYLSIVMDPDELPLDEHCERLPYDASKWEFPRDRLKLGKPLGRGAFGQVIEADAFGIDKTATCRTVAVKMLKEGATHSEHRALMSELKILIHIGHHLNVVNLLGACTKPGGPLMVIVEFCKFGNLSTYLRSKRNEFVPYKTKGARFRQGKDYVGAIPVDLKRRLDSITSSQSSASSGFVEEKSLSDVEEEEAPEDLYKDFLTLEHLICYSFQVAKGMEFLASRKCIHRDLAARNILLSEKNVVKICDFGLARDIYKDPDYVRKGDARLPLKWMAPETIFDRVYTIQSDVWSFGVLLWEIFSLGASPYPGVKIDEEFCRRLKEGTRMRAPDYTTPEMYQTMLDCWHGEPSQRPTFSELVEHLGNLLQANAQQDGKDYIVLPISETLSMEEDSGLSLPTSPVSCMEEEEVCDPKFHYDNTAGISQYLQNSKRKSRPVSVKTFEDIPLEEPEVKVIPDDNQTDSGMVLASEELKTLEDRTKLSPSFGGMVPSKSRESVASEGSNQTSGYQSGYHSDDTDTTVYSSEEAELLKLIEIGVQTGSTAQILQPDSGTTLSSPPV
Cyclin-dependent kinase 5, sequence (Q00535 whole entry): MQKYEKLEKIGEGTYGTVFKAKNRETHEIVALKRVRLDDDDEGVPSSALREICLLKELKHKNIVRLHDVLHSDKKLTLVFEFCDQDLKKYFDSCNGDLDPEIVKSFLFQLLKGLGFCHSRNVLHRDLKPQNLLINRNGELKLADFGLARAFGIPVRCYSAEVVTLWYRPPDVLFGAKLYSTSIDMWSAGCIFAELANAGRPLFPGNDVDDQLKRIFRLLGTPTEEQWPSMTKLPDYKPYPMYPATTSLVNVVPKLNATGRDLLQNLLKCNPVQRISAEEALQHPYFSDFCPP
Mitogen-activated protein kinase 9, sequence (P45984 whole entry): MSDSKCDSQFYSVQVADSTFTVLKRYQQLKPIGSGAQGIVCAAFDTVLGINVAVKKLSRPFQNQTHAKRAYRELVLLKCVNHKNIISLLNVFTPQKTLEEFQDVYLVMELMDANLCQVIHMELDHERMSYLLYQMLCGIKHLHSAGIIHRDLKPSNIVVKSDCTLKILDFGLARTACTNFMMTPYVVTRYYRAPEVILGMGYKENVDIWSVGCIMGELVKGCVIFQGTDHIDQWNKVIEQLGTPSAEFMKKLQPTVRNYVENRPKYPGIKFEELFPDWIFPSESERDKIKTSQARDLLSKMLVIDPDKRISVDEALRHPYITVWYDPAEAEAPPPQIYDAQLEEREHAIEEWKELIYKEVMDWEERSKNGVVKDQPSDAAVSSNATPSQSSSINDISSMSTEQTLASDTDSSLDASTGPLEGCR
Glycogen synthase kinase-3 beta, sequence (P49841 whole entry): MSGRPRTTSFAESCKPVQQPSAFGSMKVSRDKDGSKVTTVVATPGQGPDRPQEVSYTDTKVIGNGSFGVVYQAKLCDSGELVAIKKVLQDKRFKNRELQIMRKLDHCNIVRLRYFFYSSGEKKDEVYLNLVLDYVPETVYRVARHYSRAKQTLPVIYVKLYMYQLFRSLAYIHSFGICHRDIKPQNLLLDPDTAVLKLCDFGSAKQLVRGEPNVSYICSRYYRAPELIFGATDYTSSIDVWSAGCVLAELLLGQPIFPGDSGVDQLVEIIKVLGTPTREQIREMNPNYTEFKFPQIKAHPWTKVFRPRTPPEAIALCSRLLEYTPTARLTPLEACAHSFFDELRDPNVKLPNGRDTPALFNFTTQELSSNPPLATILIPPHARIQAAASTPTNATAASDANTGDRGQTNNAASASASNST

- Ki [1]: > 2.51 µM (inactive)
- Ki [2]: 3.16 µM (active)
- Ki [3]: > 3.16 µM (inactive)
- Ki [4]: 0.501 µM (active)
- Ki [5]: 0.0794 µM (active)
- Ki [6]: 2 µM (active)
- Ki [7]: > 5.01 µM (inactive)
- Ki [8]: 3.98 µM (active)
- Ki [9]: > 3.98 µM (inactive)
- Ki [10]: > 2.51 µM (inactive)
- Ki [11]: 1.26 µM (active)
- Ki [12]: 0.158 µM (active)
- Ki [13]: 3.98 µM (active)
- Ki [14]: > 3.16 µM (inactive)
- Ki [15]: 2.51 µM (active)
- Ki [16]: > 2.51 µM (inactive)
- Ki [17]: > 3.98 µM (inactive)
- Ki [18]: > 3.98 µM (inactive)
- Ki [19]: 1 µM (active)
- Ki [20]: > 3.16 µM (inactive)
- Ki [21]: > 6.31 µM (inactive)
- Ki [22]: > 2.51 µM (inactive)
- Ki [23]: > 2.51 µM (inactive)
- Ki [24]: > 6.31 µM (inactive)
- Ki [25]: 2.51 µM (active)
- Ki [26]: > 3.98 µM (inactive)
- Ki [27]: > 3.98 µM (inactive)
- Ki [28]: 0.0158 µM (active)
- Ki [29]: > 3.16 µM (inactive)
SMILES: O=C(NCCc1cccs1)N1CC=C(c2c[nH]c3ncccc23)CC1

SMILES: Cc1ccnc2ccc(-c3nc4ccccc4o3)cc12
- IC50 [30]: 2.2 µM (active)
